Experimental findings from ChEMBL document CHEMBL5653615 (J Biol Chem, 2013) are described below.

Assay [1] has as its target Proto-oncogene tyrosine-protein kinase Src (Homo sapiens) (UniProt P12931). The experiment in a line: Inhibition of human c-Src at 500 nM by HotSpot assay relative to control.
The target in assay [2] is Serine/threonine-protein kinase 26 (Homo sapiens) (UniProt Q9P289). The experiment in a line: Inhibition of human MST4 at 500 nM by HotSpot assay relative to control.
For assay [3], the target named is T1, Serine/threonine-protein kinase Nek9 (Homo sapiens) (UniProt Q8TD19).
T1 sequence (whole entry): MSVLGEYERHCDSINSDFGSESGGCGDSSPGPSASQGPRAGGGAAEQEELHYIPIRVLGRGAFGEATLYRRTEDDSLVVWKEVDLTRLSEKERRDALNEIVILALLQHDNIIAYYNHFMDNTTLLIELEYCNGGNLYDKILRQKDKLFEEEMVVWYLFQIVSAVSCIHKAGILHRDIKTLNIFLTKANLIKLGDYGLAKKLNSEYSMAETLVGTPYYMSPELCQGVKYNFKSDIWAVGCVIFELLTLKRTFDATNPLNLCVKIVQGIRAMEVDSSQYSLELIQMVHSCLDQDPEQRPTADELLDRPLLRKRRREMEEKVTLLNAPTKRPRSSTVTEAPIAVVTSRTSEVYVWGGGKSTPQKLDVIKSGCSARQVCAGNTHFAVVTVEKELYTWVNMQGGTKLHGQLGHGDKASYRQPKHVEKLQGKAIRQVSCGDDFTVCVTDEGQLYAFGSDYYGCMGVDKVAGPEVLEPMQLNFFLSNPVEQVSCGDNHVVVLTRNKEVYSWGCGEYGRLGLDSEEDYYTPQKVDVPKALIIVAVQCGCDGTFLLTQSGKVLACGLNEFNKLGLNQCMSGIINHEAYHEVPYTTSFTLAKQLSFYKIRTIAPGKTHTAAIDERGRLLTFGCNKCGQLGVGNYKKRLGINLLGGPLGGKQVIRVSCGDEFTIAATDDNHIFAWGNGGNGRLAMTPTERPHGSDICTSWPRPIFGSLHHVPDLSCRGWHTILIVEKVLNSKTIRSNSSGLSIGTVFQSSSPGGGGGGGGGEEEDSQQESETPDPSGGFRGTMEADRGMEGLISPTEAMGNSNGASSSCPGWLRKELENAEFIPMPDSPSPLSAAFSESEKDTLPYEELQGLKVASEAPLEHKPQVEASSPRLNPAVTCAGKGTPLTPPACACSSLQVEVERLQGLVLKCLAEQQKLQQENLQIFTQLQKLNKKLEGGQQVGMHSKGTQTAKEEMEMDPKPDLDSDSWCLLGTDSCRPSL
The experiment in a line: Inhibition of human NEK9 at 500 nM by HotSpot assay relative to control.

Assay [4] concerns the target Mast/stem cell growth factor receptor Kit (Homo sapiens) (UniProt P10721). The experiment in a line: Inhibition of human c-Kit at 500 nM by HotSpot assay relative to control.
The nature of assay [5]: Inhibition of unphosphorylated human Insulin receptor (978 to 1283 residues) C981S mutant kinase domain expressed in baculovirus infected Sf9 cells incubated for 1 hr by [gamma-33P]ATP assay.
Assay [6] has as its target Maternal embryonic leucine zipper kinase (Homo sapiens) (UniProt Q14680). The experiment in a line: Inhibition of human MELK at 500 nM by HotSpot assay relative to control.
For assay [7], the target named is Mitogen-activated protein kinase 11 (Homo sapiens) (UniProt Q15759). The experiment in a line: Inhibition of human MAPK11 at 500 nM by HotSpot assay relative to control.
Chain of Mitogen-activated protein kinase 11 (Homo sapiens) (Q15759 whole entry): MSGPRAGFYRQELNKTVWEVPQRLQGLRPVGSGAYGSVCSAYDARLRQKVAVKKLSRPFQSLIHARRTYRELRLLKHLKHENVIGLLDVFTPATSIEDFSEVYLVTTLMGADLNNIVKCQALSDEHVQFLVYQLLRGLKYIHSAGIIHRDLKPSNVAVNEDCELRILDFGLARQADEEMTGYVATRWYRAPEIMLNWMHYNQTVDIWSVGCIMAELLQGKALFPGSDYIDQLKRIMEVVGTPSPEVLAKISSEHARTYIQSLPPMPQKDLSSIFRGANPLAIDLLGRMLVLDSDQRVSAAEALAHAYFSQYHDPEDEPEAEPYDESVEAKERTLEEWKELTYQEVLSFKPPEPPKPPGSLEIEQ
The target of assay [8] is Homeodomain-interacting protein kinase 3 (Homo sapiens) (UniProt Q9H422). Nature of the assay: Inhibition of human HIPK3 at 500 nM by HotSpot assay relative to control.
The target in assay [9] is Ribosomal protein S6 kinase alpha-6 (Homo sapiens) (UniProt Q9UK32). Nature of the assay: Inhibition of human RSK4 at 500 nM by HotSpot assay relative to control.
Chain of Ribosomal protein S6 kinase alpha-6 (Homo sapiens) (Q9UK32 whole entry): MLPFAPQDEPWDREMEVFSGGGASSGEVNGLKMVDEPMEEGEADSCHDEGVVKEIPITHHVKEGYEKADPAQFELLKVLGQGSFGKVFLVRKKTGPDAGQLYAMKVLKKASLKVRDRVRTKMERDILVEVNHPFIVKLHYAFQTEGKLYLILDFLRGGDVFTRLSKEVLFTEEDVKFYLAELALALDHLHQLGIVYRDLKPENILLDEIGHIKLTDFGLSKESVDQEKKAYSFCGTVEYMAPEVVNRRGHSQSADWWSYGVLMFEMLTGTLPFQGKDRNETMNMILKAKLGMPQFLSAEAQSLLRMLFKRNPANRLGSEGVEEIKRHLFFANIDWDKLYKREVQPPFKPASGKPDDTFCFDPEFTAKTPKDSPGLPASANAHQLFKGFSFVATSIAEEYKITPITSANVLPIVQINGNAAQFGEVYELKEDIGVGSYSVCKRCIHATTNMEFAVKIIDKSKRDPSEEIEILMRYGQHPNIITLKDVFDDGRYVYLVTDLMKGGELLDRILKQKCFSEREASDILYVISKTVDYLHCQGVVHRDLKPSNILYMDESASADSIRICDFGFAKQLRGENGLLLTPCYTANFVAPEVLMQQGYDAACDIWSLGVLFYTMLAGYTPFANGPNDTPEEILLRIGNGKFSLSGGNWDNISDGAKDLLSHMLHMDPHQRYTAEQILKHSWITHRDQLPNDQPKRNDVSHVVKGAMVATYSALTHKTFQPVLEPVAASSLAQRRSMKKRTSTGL
Assay [10] has as its target Serine/threonine-protein kinase Nek6 (Homo sapiens) (UniProt Q9HC98). The experiment in a line: Inhibition of human NEK6 at 500 nM by HotSpot assay relative to control.
Assay [11] concerns the target Tyrosine-protein kinase Lyn (Homo sapiens) (UniProt P07948). Nature of the assay: Inhibition of human LYN at 500 nM by HotSpot assay relative to control.
Assay [12] has as its target Serine/threonine-protein kinase OSR1 (Homo sapiens) (UniProt O95747). Nature of the assay: Inhibition of human OXSR1 at 500 nM by HotSpot assay relative to control.
In assay [13] the target is Receptor tyrosine-protein kinase erbB-4 (Homo sapiens) (UniProt Q15303). The experiment in a line: Inhibition of human ERBB4 at 500 nM by HotSpot assay relative to control.
Chain of Receptor tyrosine-protein kinase erbB-4 (Homo sapiens) (Q15303 whole entry): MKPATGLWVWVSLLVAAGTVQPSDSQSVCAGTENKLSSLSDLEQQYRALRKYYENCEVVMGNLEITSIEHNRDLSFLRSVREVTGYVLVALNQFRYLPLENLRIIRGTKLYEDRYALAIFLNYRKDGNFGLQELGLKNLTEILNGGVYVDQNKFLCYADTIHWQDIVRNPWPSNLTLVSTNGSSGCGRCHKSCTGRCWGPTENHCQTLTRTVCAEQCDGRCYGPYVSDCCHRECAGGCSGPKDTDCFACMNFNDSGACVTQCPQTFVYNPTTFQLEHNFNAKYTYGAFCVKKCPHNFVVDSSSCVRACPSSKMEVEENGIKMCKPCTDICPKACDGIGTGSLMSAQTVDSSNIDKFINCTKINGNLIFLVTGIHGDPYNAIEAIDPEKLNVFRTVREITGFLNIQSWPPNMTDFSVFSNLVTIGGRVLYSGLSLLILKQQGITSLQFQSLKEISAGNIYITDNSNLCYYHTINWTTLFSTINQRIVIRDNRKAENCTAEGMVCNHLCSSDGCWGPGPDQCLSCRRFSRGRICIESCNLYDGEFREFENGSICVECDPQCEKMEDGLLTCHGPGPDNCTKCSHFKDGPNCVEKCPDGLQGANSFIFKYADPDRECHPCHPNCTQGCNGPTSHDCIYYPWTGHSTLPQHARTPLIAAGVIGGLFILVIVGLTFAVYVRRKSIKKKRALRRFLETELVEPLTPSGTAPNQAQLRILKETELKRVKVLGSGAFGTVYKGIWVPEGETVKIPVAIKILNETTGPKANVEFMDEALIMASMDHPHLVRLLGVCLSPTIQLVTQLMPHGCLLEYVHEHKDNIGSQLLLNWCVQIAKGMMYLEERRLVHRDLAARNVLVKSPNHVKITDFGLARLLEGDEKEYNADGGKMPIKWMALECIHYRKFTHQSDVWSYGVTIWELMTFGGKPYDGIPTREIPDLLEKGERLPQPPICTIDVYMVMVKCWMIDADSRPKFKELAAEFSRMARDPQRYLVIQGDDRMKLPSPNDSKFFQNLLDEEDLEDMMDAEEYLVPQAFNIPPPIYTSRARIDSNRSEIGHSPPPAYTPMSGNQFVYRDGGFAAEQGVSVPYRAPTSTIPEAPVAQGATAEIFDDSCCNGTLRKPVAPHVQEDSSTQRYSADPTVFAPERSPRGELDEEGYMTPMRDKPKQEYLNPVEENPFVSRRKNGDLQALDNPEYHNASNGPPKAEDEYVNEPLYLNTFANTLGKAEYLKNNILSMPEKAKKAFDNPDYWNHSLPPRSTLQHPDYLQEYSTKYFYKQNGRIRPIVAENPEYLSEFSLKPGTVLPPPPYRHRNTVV
Assay [14] addresses Serine/threonine-protein kinase MARK1 (Homo sapiens) (UniProt Q9P0L2). Nature of the assay: Inhibition of human MARK1 at 500 nM by HotSpot assay relative to control.
Assay [15] deals with Serine/threonine-protein kinase 33 (Homo sapiens) (UniProt Q9BYT3). Nature of the assay: Inhibition of human STK33 at 500 nM by HotSpot assay relative to control.
Assay [16] deals with Tyrosine-protein kinase Yes (Homo sapiens) (UniProt P07947). The experiment in a line: Inhibition of human YES1 at 500 nM by HotSpot assay relative to control.
For assay [17], the target named is Mitogen-activated protein kinase kinase kinase 20 (Homo sapiens) (UniProt Q9NYL2). Nature of the assay: Inhibition of human MLTK at 500 nM by HotSpot assay relative to control.
A short description of assay [18]: Inhibition of mono-phosphorylated human Insulin receptor (978 to 1283 residues) C981S mutant kinase domain expressed in baculovirus infected Sf9 cells incubated for 1 hr by [gamma-33P]ATP assay.
Assay [19] addresses Activin receptor type-1-like (Homo sapiens) (UniProt P37023). The experiment in a line: Inhibition of human ALK1 at 500 nM by HotSpot assay relative to control.
The target of assay [20] is T2, Serine/threonine-protein kinase Sgk2 (Homo sapiens) (UniProt Q9HBY8).
T2 sequence (whole entry): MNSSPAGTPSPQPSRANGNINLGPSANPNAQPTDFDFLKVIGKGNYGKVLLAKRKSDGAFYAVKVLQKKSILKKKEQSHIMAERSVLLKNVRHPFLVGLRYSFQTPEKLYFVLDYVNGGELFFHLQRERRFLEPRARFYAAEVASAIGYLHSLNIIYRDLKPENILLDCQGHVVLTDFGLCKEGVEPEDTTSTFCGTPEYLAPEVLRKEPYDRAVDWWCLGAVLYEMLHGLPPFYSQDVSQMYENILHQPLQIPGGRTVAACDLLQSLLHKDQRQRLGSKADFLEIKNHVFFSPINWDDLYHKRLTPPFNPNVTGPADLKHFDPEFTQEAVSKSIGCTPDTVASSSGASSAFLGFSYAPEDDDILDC
The experiment in a line: Inhibition of human SGK2 at 500 nM by HotSpot assay relative to control.

The target of assay [21] is Dual specificity protein kinase CLK3 (Homo sapiens) (UniProt P49761). Nature of the assay: Inhibition of human CLK3 at 500 nM by HotSpot assay relative to control.
Another assay is filed under the species Homo sapiens. The experiment in a line: Inhibition of human CDK2/cyclin A at 500 nM by HotSpot assay relative to control.

Active and inactive are the calls of the source. No cut-off for these calls is given here.

Chain of Tyrosine-protein kinase Lyn (Homo sapiens) (P07948 2-512 limits assumed): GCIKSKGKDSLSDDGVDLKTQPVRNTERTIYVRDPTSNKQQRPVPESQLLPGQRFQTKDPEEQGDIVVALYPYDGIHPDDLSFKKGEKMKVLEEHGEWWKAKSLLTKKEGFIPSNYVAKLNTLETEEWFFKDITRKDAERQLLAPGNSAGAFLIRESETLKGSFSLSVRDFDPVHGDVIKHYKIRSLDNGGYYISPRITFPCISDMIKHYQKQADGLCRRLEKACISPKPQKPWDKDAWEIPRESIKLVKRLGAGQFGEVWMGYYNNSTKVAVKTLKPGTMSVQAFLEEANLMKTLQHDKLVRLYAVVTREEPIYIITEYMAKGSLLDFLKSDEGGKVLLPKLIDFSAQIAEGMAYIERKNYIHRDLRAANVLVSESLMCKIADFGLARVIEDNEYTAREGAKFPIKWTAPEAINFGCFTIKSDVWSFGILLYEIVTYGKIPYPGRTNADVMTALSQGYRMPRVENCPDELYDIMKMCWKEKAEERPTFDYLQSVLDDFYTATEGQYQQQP
Chain of Maternal embryonic leucine zipper kinase (Homo sapiens) (Q14680 whole entry, looked up): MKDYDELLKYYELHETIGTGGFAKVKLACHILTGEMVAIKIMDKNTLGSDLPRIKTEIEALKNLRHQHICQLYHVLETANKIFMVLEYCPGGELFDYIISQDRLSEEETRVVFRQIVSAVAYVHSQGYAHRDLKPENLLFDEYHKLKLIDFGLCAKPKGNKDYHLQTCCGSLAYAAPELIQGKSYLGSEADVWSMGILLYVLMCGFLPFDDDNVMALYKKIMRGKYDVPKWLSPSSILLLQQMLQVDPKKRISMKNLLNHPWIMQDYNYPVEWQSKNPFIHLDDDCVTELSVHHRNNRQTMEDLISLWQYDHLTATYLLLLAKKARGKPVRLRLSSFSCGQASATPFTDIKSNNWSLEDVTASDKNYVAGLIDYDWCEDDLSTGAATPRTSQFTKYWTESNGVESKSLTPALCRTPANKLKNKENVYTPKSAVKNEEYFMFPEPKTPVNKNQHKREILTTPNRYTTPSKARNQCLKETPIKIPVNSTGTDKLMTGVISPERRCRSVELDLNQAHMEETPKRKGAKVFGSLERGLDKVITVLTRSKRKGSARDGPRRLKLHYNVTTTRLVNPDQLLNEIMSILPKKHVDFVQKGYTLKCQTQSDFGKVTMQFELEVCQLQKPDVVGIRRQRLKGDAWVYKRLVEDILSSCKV
Chain of Serine/threonine-protein kinase 26 (Homo sapiens) (Q9P289 2-416 limits assumed): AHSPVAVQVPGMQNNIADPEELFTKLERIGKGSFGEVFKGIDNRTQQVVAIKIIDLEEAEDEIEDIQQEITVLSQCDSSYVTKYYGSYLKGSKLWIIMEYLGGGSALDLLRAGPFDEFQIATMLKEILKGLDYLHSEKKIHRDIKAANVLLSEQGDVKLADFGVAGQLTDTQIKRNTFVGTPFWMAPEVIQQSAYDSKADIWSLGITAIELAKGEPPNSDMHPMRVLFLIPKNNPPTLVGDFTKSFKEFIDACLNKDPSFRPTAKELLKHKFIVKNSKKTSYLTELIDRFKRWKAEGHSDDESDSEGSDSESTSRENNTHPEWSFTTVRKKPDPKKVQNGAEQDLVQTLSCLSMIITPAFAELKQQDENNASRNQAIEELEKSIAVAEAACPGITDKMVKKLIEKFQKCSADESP
Chain of Mast/stem cell growth factor receptor Kit (Homo sapiens) (P10721 whole entry, the tested form may be a part): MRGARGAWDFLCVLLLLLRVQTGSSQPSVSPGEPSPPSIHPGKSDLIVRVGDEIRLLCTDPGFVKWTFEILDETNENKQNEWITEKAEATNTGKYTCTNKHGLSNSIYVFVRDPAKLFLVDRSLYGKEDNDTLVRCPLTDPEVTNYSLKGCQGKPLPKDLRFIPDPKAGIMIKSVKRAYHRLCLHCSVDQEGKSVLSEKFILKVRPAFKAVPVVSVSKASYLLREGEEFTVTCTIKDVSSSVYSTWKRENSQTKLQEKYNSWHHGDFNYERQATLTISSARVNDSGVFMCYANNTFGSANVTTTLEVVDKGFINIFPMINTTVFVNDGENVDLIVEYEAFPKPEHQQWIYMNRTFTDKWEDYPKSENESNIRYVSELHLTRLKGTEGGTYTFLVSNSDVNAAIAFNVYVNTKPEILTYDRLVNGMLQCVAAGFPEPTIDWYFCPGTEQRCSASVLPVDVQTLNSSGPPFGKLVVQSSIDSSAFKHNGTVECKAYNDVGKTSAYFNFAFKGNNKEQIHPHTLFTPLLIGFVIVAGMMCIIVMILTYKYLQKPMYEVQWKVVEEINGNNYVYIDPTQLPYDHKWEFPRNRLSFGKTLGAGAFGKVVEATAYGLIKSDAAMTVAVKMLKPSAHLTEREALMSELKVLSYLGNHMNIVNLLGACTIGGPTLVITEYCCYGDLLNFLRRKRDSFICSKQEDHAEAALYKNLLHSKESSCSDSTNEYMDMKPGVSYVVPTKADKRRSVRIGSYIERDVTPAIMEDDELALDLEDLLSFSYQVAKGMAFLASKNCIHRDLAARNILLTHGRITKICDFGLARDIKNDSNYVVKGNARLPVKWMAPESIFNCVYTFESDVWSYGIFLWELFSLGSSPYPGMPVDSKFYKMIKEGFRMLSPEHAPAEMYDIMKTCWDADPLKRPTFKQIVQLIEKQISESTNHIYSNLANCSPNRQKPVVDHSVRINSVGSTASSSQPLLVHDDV

Turning to `Oc1n[nH]c2nnc(-c3c(-c4ccccc4)nn4ccccc34)cc12`, the inhibition in assay [1] was -2.58%; in assay [2], 3.66%; in [3], 10.2%; in [4], 0.91%; in [6] it was -1.3%; in [7], 5.77%. Also, the inhibition in assay [8] is -0.3%; in assay [9], -2.71%; in [10] it was 3.5%; in assay [11], 2.29%; in assay [12], -8.54%; in assay [13] it was -0.52%. The inhibition in assay [14] is 4.47%; in assay [15], -0.22%; in assay [16] it was 4.49%; in assay [17], -0.11%; in [19], -0.63%; in assay [20], 3.78%. In addition, the inhibition in assay [21] was 1.04%; in the assay filed under Homo sapiens, -0.72%. The inhibition result in assay [5] and in [18] was “Active” each time.

With `Nc1n[nH]c2nnc(-c3c(-c4ccccc4)nn4ccccc34)cc12`, the inhibition in assay [1] was -0.45%; in [2] it was 24.1%; in assay [3], 6.65%; in assay [4], 2.89%; in [6] it was -1.59%; in [7], 10%. Moreover, the inhibition is -3.93% in [8]; 4.48% in [9]; 4.45% in assay [10]; 5.07% in assay [11]; -2.39% in [12]; 8.64% in [13]. For the same compound, the inhibition was 2.04% in [14]; -0.39% in assay [15]; 8.91% in assay [16]; -1.29% in assay [17]; -6.11% in assay [19]; 1.2% in assay [20]. Moreover, the inhibition in [21] stood at 5.1%; in the assay filed under Homo sapiens, 7.12%. For the same compound, the inhibition entry in assay [5] and in [18] was “Active” in each case.

Broadly, the inhibition is the drop in the measured response relative to a control, in per cent.
